Reference: patent publication US11498923B2 (Merck Sharp & Dohme Corp., priority 2017, dated 2022)

These compounds were tested against T1, human A2a receptor (Homo sapiens, UniProt P29274) (assay: A2a receptor competition binding assay (Scintillation Proximity)). Conditions: A2a Ki, membranes from HEK293 cells expressing human A2a receptor; 0.5 nM tritiated ligand; Cheng-Prusoff.
T1 construct: purchased Perkin-Elmer RBHA2AM400UA; host or cells: HEK293 cells, used as a membrane preparation
Summary of the method: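 HEK293 membranes bearing the human receptor, pretreated with adenosine deaminase, competed against 0.5 nM tritiated pyrazolotriazolopyrimidine antagonist with compound at 3000–0.15 nM final in DPBS plus 10 mM MgCl2. SPA bead readout after 1 h at room temperature; Ki from EC50 via Cheng-Prusoff.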

T1 sequence (P29274 whole entry): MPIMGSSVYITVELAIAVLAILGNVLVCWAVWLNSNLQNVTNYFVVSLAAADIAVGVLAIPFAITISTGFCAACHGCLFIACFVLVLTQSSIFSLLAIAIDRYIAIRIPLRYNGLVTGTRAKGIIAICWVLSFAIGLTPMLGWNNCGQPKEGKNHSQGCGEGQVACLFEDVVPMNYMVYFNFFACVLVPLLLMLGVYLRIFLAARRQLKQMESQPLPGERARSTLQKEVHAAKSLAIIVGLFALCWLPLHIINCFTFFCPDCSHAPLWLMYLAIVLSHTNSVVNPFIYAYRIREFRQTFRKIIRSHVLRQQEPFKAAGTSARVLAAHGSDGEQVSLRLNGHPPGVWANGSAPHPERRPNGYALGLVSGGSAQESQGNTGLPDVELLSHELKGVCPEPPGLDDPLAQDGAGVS

| SMILES | Ki |
| --- | --- |
| COc1cccc2c1nc(N)n1cc(C(=O)N3C4CCCC3CC4)nc21 [Ex-208, (5-amino-7-methoxyimidazo[1,2-c]quinazolin-2-yl)(8-azabicyclo[3.2.1]octan-8-yl)methanone] | 3.2 nM |

Same assay, conditions: membranes from HEK293 cells expressing human A2a receptor; 0.5 nM tritiated ligand; Cheng-Prusoff; read-out: A2a Ki

| SMILES | Ki |
| --- | --- |
| COc1cccc2c1nc(N)n1cc(CN3CCc4ccc(-c5ccc(F)c(F)c5)cc4C3)nc21 [Ex-135, 2-((7-(3,4-difluorophenyl)-3,4-dihydroisoquinolin-2(1H)-yl)methyl)-7-methoxyimidazo[1,2-c]quinazolin-5-amine] | 10.4 nM |
| COc1cccc2c1nc(N)n1cc(C(=O)N3CCCC(C(F)(F)F)C3)nc21 (centres unmarked) [Ex-173, (5-amino-7-methoxyimidazo[1,2-c]quinazolin-2-yl)(3-(trifluoromethyl)piperidin-1-yl)methanone] | 31 nM |
| Nc1nc2c(F)cccc2c2nc(Cc3cccc(CN4CCOCC4)c3)cn12 [Ex-33, 7-fluoro-2-(3-(morpholinomethyl)benzyl)imidazo[1,2-c]quinazolin-5-amine] | 3 nM |
| COc1cccc2c1nc(N)n1cc(C(=O)N3CCCC(C)CC3)nc21 (centres unmarked) [Ex-176, (5-amino-7-methoxyimidazo[1,2-c]quinazolin-2-yl)(4-methylazepan-1-yl)methanone] | 10 nM |
| Nc1nc2c(F)cccc2c2nc(CN3Cc4ccc(Br)cc4C3)cn12 [Ex-126, 2-((5-bromoisoindolin-2-yl)methyl)-7-fluoroimidazo[1,2-c]quinazolin-5-amine] | 38 nM |
| COc1cccc2c1nc(N)n1cc(C(=O)N3CCC(F)(F)CC3)nc21 [Ex-168, (5-amino-7-methoxyimidazo[1,2-c]quinazolin-2-yl)(4,4-difluoropiperidin-1-yl)methanone] | 81 nM |
| Nc1nc2c(F)cccc2c2nc(CN3CCc4ccc(CC(=O)Nc5ccccn5)cc4C3)cn12 [Ex-131, 2-(2-((5-amino-7-fluoroimidazo[1,2-c]quinazolin-2-yl)methyl)-1,2,3,4-tetrahydroisoquinolin-7-yl)-N-(pyridin-2-yl)acetamide] | 8.4 nM |

Now from value to compound:

| Ki | SMILES |
| --- | --- |
| 11 nM | COc1cccc2c1nc(N)n1cc(C(=O)N3CCCC4(COC4)C3)nc21 [Ex-203, (5-amino-7-methoxyimidazo[1,2-c]quinazolin-2-yl)(2-oxa-6-azaspiro[3.5]nonan-6-yl)methanone] |
| 7.4 nM | COc1cccc2c1nc(N)n1cc(C(=O)N3CC[C@H](F)C3)nc21 [Ex-215, (S)-(5-amino-7-methoxyimidazo[1,2-c]quinazolin-2-yl)(3-fluoropyrrolidin-1-yl)methanone] |
| 21 nM | COc1ccc(C(=O)N2CCC(Cc3cn4c(N)nc5c(F)cccc5c4n3)CC2)nc1 [Ex-327, (4-((5-amino-7-fluoroimidazo[1,2-c]quinazolin-2-yl)-methyl)piperidin-1-yl)(5-methoxypyridin-2-yl)methanone] |
| 12 nM | Nc1nc2c(F)cccc2c2nc(C(=O)NCc3ccccc3N3CCN(CCCO)CC3)cn12 [Ex-271, 5-amino-7-fluoro-N-(2-(4-(3-hydroxypropyl)-piperazin-1-yl)benzyl)-imidazo[1,2-c]-quinazoline-2-carboxamide] |
| 110 nM | COc1cccc2c1nc(N)n1cc(C(=O)N3CCC4(CC3)COC4)nc21 [Ex-206, (5-amino-7-methoxyimidazo[1,2-c]quinazolin-2-yl)(2-oxa-7-azaspiro[3.5]nonan-7-yl)methanone] |
| 31 nM | COc1cccc2c1nc(N)n1cc(C(=O)N3CCCC(=O)CC3)nc21 [Ex-179, 1-(5-amino-7-methoxyimidazo[1,2-c]quinazoline-2-carbonyl)azepan-4-one] |
